Source: paper PMC3353862
In brackets after ≈: the same amount, converted by molar mass.

Assays:
E. coli tolC mutants = assay: Broth microdilution MIC testing; type: cell-based, Escherichia coli; settings: E. coli tolC mutants
[1] = tested on: E. coli modified with PMBN; assay: Broth microdilution MIC testing; type: cell-based, Escherichia coli; settings: E. coli modified with PMBN
H. influenzae = assay: Broth microdilution MIC testing; type: cell-based, Haemophilus influenzae; settings: H. influenzae
M. catarrhalis = assay: Broth microdilution MIC testing; type: cell-based, Moraxella catarrhalis
[2] = tested on: bacterial protein synthesis (aminoacylation/translation system); assay: aminoacylation/translation (A/T) assay; type: biochemical; settings: A/T assay, Table 1; read-out: IC50
S. aureus = assay: Broth microdilution MIC testing; type: cell-based, Staphylococcus aureus; settings: S. aureus
S. pneumoniae = assay: Broth microdilution MIC testing; type: cell-based, Streptococcus pneumoniae; settings: S. pneumoniae
E. faecalis = assay: Broth microdilution MIC testing; type: cell-based, Enterococcus faecalis; settings: E. faecalis
panel of bacteria = assay: Antibacterial activity against the panel of bacteria (MIC, overall); type: cell-based; settings: Table 2; note: key: +: poor; ++: moderate; +++: good antibacterial activity

| Structure (SMILES) | MIC E. coli tolC (E. coli tolC mutants) | MIC E. coli +PMBP [1] | MIC H. flu (H. influenzae) | MIC M. cat (M. catarrhalis) | IC50 [2] | MIC S. aureus (S. aureus) | MIC S. pneumo (S. pneumoniae) | MIC E. fae (E. faecalis) | MIC (antibacterial activity grade) (panel of bacteria) |
| --- | --- | --- | --- | --- | --- | --- | --- | --- | --- |
| COc1cc(CN2CCc3nc(-c4ccccn4)[nH]c(=O)c3C2)ccc1OCCO [Compound 323214] | > 128 µg/mL | > 128 µg/mL | > 128 µg/mL | > 128 µg/mL | > 300 µM | > 128 µg/mL | > 128 µg/mL | > 128 µg/mL |  |
| COc1cc(CN2CCc3nc(-c4ccccn4)[nH]c(=O)c3C2)ccc1O [Compound 323215] | > 128 µg/mL | > 128 µg/mL | 64 µg/mL (≈ 176 µM) | 128 µg/mL (≈ 351 µM) | 2.1 µM | > 128 µg/mL | > 128 µg/mL | > 128 µg/mL |  |
| O=c1[nH]c(-c2ccccn2)nc2c1CN(Cc1ccc(Cl)cc1)CC2 [Compound 323216] | 8 µg/mL (≈ 22.7 µM) | 8 µg/mL (≈ 22.7 µM) | 2 µg/mL (≈ 5.67 µM) | ≤0.12 µg/mL | 1.1 µM | 16 µg/mL (≈ 45.3 µM) | 4 µg/mL (≈ 11.3 µM) | 32 µg/mL (≈ 90.7 µM) |  |
| COc1ccc(CN2CCc3nc(-c4ccccn4)[nH]c(=O)c3C2)cc1O [Compound 323217] | > 128 µg/mL | > 128 µg/mL | 32 µg/mL (≈ 87.8 µM) | 32 µg/mL (≈ 87.8 µM) | 4.8 µM | > 128 µg/mL | > 128 µg/mL | > 128 µg/mL |  |
| O=c1[nH]c(-c2ccccn2)nc2c1CN(Cc1ccccc1Cl)CC2 [Compound 323219] | 8 µg/mL (≈ 22.7 µM) | 16 µg/mL (≈ 45.3 µM) | 4 µg/mL (≈ 11.3 µM) | ≤0.12 µg/mL | 3 µM | 16 µg/mL (≈ 45.3 µM) | 4 µg/mL (≈ 11.3 µM) | 32 µg/mL (≈ 90.7 µM) |  |
| O=c1[nH]c(-c2ccccn2)nc2c1CN(Cc1cccc(Cl)c1)CC2 [Compound 323220] | 8 µg/mL (≈ 22.7 µM) | 8 µg/mL (≈ 22.7 µM) | 2 µg/mL (≈ 5.67 µM) | ≤0.12 µg/mL | 2.1 µM | 16 µg/mL (≈ 45.3 µM) | 4 µg/mL (≈ 11.3 µM) | 32 µg/mL (≈ 90.7 µM) |  |
| CC(=O)Nc1ccc(CN2CCc3nc(-c4ccccn4)[nH]c(=O)c3C2)cc1 [Compound 323222] | > 128 µg/mL | > 128 µg/mL | > 128 µg/mL | > 128 µg/mL | > 300 µM | > 128 µg/mL | > 128 µg/mL | > 128 µg/mL |  |
| COc1cccc(CN2CCc3nc(-c4ccccn4)[nH]c(=O)c3C2)c1OC [Compound 323223] | 128 µg/mL (≈ 338 µM) | 64 µg/mL (≈ 169 µM) | 32 µg/mL (≈ 84.6 µM) | 4 µg/mL (≈ 10.6 µM) | 14.7 µM | > 128 µg/mL | 32 µg/mL (≈ 84.6 µM) | > 128 µg/mL |  |
| COc1cc(OC)c(OC)cc1CN1CCc2nc(-c3ccccn3)[nH]c(=O)c2C1 [Compound 323226] | > 128 µg/mL | > 128 µg/mL | > 128 µg/mL | 64 µg/mL (≈ 157 µM) | 8 µM | > 128 µg/mL | > 128 µg/mL | > 128 µg/mL |  |
| O=c1[nH]c(-c2ccccn2)nc2c1CN(Cc1cc(F)ccc1F)CC2 [Compound 323228] | 16 µg/mL (≈ 45.2 µM) | 16 µg/mL (≈ 45.2 µM) | 4 µg/mL (≈ 11.3 µM) | 0.5 µg/mL (≈ 1.41 µM) | 0.3 µM |  | 8 µg/mL (≈ 22.6 µM) | 64 µg/mL (≈ 181 µM) | ++ |
| O=c1[nH]c(-c2ccccn2)nc2c1CN(Cc1cc(F)cc(F)c1)CC2 [Compound 323230] | 16 µg/mL (≈ 45.2 µM) | 16 µg/mL (≈ 45.2 µM) | 8 µg/mL (≈ 22.6 µM) | 0.5 µg/mL (≈ 1.41 µM) | 2 µM | 32 µg/mL (≈ 90.3 µM) | 8 µg/mL (≈ 22.6 µM) | 32 µg/mL (≈ 90.3 µM) |  |
| CN(CCO)c1ccc(CN2CCc3nc(-c4ccccn4)[nH]c(=O)c3C2)cc1 [Compound 323232] | 128 µg/mL (≈ 327 µM) | > 128 µg/mL | > 128 µg/mL | 8 µg/mL (≈ 20.4 µM) | 3.2 µM | > 128 µg/mL | > 128 µg/mL | > 128 µg/mL |  |
| COc1cc2c(cc1CN1CCc3nc(-c4ccccn4)[nH]c(=O)c3C1)OCO2 [Compound 323233] | 64 µg/mL (≈ 163 µM) | 64 µg/mL (≈ 163 µM) | 16 µg/mL (≈ 40.8 µM) | 4 µg/mL (≈ 10.2 µM) | > 300 µM | > 128 µg/mL | 32 µg/mL (≈ 81.5 µM) | 128 µg/mL (≈ 326 µM) |  |
